From article PMC4893628, “Chalcone-based Selective Inhibitors of a C4 Plant Key Enzyme as Novel Potential Herbicides” (Scientific Reports, 2016)
Like-named read-outs stand apart in the source and are kept apart here.

Legend:
Assay type in all cases: cell-based
[1] = system: Corynebacterium glutamicum ATCC13032; experiment: Bacterial growth in microscale cultivation, C. glutamicum; details: relative to control; for activity at 4 µM / activity at 40 µM / activity at 120 µM / activity at 400 µM: Corynebacterium glutamicum
Experimental: (§1) The following bacteria were cultivated in the presence of trans-chalcone derived inhibitors: Corynebacterium glutamicum ATCC13032[43], Escherichia coli K-12 MG1655[44], Pseudomonas putida KT2440[45], and Bacillus subtilis 168[46]. The growth of these bacteria was monitored in flower-well plates shaken at 1200 rpm as backscatter at 620 nm (gain 20) using a BioLector® microscale cultivation system (m2p labs, Baesweiler, Germany). For further experimental details please refer to the Supplementary Information.
(§2) medium or the appropriate minimal medium and shaken at 140 rpm overnight. For inoculation of
(§3) the main culture, cells equivalent to an optical density at 600 nm of 0.5 (C. glutamicum, E. coli,
(§4) and P. putida) or 0.25 (B. subtilis) in 800 µL medium were washed and resuspended in fresh
(§5) media. Inhibitor substances were dissolved in DMSO and added to the media to a final
(§6) Since the least polar trans-chalcone and 2’-hydroxychalcone precipitated in the growth media at
(§7) the highest concentrations, the maximal concentration of these compounds was reduced to 400
(§8) µM and 100 µM, respectively. The final backscatter at 620 nm, the growth rate (h-1), and the
(§9) duration of the lag phase of all cultures were determined in a BioLector microscale cultivation
(§10) system in comparison to negative controls supplemented with the solvent DMSO. A longer lag

[2] = system: Escherichia coli K-12 MG1655; experiment: Bacterial growth in microscale cultivation, E. coli; details: relative to control; for activity at 4 µM / activity at 40 µM / activity at 400 µM: Escherichia coli
Experimental: as §1, §2, §3, §4, §5, §6, §7, §8, §9, §10

[3] = system: Bacillus subtilis 168; experiment: Bacterial growth in microscale cultivation, B. subtilis; details: for activity at 4 µM / activity at 40 µM / activity at 120 µM / activity at 400 µM / Lag Phase: relative to control; for Influence on bacterial growth: highest concentration tested (10× IC50) if not stated otherwise
Experimental: as §1, §2, §3, §4, §5, §6, §7, §8, §9, §10

[4] = ATCC13032, complex medium, 4 µM, read-out: Final Backscatter
[5] = ATCC13032, complex medium, 4 µM, read-out: Growth rate
[6] = ATCC13032, complex medium, 40 µM, read-out: Final Backscatter
[7] = ATCC13032, complex medium, 40 µM, read-out: Growth rate
[8] = ATCC13032, complex medium, 400 µM, read-out: Final Backscatter
[9] = ATCC13032, complex medium, 400 µM, read-out: Growth rate
[10] = ATCC13032, minimal medium, 4 µM, read-out: Final Backscatter
[11] = ATCC13032, minimal medium, 4 µM, read-out: Growth rate
[12] = ATCC13032, minimal medium, 40 µM, read-out: Final Backscatter
[13] = ATCC13032, minimal medium, 40 µM, read-out: Growth rate
[14] = ATCC13032, minimal medium, 400 µM, read-out: Final Backscatter
[15] = ATCC13032, minimal medium, 400 µM, read-out: Growth rate
[16] = MG1655, complex medium, 4 µM, read-out: Final Backscatter
[17] = MG1655, complex medium, 4 µM, read-out: Growth rate
[18] = MG1655, complex medium, 40 µM, read-out: Final Backscatter
[19] = MG1655, complex medium, 40 µM, read-out: Growth rate
[20] = MG1655, complex medium, 400 µM, read-out: Growth rate
[21] = MG1655, minimal medium, 4 µM, read-out: Final Backscatter
[22] = MG1655, minimal medium, 4 µM, read-out: Growth rate
[23] = MG1655, minimal medium, 40 µM, read-out: Final Backscatter
[24] = MG1655, minimal medium, 40 µM, read-out: Growth rate
[25] = MG1655, minimal medium, 400 µM, read-out: Final Backscatter
[26] = MG1655, minimal medium, 400 µM, read-out: Growth rate
[27] = Bacillus subtilis, 168, complex medium, 4 µM, read-out: Final Backscatter
[28] = Bacillus subtilis, 168, complex medium, 4 µM, read-out: Growth rate
[29] = Bacillus subtilis, 168, complex medium, 40 µM, read-out: Final Backscatter
[30] = Bacillus subtilis, 168, complex medium, 40 µM, read-out: Growth rate
[31] = Bacillus subtilis, 168, complex medium, 400 µM, read-out: Final Backscatter
[32] = Bacillus subtilis, 168, complex medium, 400 µM, read-out: Growth rate
[33] = Bacillus subtilis, 168, minimal medium, 4 µM, read-out: Final Backscatter
[34] = Bacillus subtilis, 168, minimal medium, 4 µM, read-out: Growth rate
[35] = Bacillus subtilis, 168, minimal medium, 40 µM, read-out: Final Backscatter
[36] = Bacillus subtilis, 168, minimal medium, 40 µM, read-out: Growth rate
[37] = Bacillus subtilis, 168, minimal medium, 400 µM, read-out: Final Backscatter
[38] = Bacillus subtilis, 168, minimal medium, 400 µM, read-out: Growth rate

O=C(/C=C/c1ccc(O)cc1)c1ccccc1O [Compound 3, 2′,4-Dihydroxychalcone]
activity at 4 µM [1, 4]: 100%
activity at 4 µM [1, 5]: 101%
activity at 40 µM [1, 6]: 103%
activity at 40 µM [1, 7]: 99.1%
activity at 120 µM ([1]; ATCC13032, complex medium, 120 µM, read-out: Final Backscatter): 111%
activity at 120 µM ([1]; ATCC13032, complex medium, 120 µM, read-out: Growth rate): 107%
activity at 400 µM [1, 8]: 112%
activity at 400 µM [1, 9]: 93.9%
activity at 4 µM [1, 10]: 102%
activity at 4 µM [1, 11]: 99.6%
activity at 40 µM [1, 12]: 103%
activity at 40 µM [1, 13]: 99.5%
activity at 120 µM ([1]; ATCC13032, minimal medium, 120 µM, read-out: Final Backscatter): 102%
activity at 120 µM ([1]; ATCC13032, minimal medium, 120 µM, read-out: Growth rate): 96.7%
activity at 400 µM [1, 14]: 106%
activity at 400 µM [1, 15]: 81.2%
Lag Phase ([1]; complex medium, 4 µM): 93,2%
Lag Phase ([1]; complex medium, 40 µM): 93,8%
Lag Phase ([1]; complex medium, 120 µM): 100,5%
Lag Phase ([1]; complex medium, 400 µM): 118,1%
Lag Phase ([1]; minimal medium, 4 µM): 100,0%
Lag Phase ([1]; minimal medium, 40 µM): 97,3%
Lag Phase ([1]; minimal medium, 120 µM): 107,7%
Lag Phase ([1]; minimal medium, 400 µM): 139,3%
activity at 4 µM [2, 16]: 101%
activity at 4 µM [2, 17]: 88.3%
activity at 40 µM [2, 18]: 102%
activity at 40 µM [2, 19]: 95%
activity at 400 µM [2, 20]: 99.2%
activity at 4 µM [2, 21]: 100%
activity at 4 µM [2, 22]: 106%
activity at 40 µM [2, 23]: 99.1%
activity at 40 µM [2, 24]: 95.3%
activity at 400 µM [2, 25]: 101%
activity at 400 µM [2, 26]: 108%
Lag Phase ([2]; complex medium, 4 µM): 101,4%
Lag Phase ([2]; complex medium, 40 µM): 102,1%
Lag Phase ([2]; complex medium, 400 µM): 97,8%
Lag Phase ([2]; minimal medium, 4 µM): 99,3%
Lag Phase ([2]; minimal medium, 40 µM): 100,0%
Lag Phase ([2]; minimal medium, 400 µM): 98,6%
activity at 4 µM [3, 27]: 95.2%
activity at 4 µM [3, 28]: 99.5%
activity at 40 µM [3, 29]: 97.1%
activity at 40 µM [3, 30]: 108%
activity at 120 µM ([3]; Bacillus subtilis, 168, complex medium, 120 µM, read-out: Final Backscatter): 102%
activity at 120 µM ([3]; Bacillus subtilis, 168, complex medium, 120 µM, read-out: Growth rate): 114%
activity at 400 µM [3, 31]: 91.6%
activity at 400 µM [3, 32]: 92.8%
activity at 4 µM [3, 33]: 101%
activity at 4 µM [3, 34]: 130%
activity at 40 µM [3, 35]: 99.1%
activity at 40 µM [3, 36]: 119%
activity at 120 µM ([3]; Bacillus subtilis, 168, minimal medium, 120 µM, read-out: Final Backscatter): 100%
activity at 120 µM ([3]; Bacillus subtilis, 168, minimal medium, 120 µM, read-out: Growth rate): 115%
activity at 400 µM [3, 37]: 102%
activity at 400 µM [3, 38]: 113%
Lag Phase ([3]; complex medium, 4 µM): 105,7%
Lag Phase ([3]; complex medium, 40 µM): 105,7%
Lag Phase ([3]; complex medium, 120 µM): 125,5%
Lag Phase ([3]; complex medium, 400 µM): 151,3%
Lag Phase ([3]; minimal medium, 4 µM): 99,0%
Lag Phase ([3]; minimal medium, 40 µM): 101,0%
Lag Phase ([3]; minimal medium, 120 µM): 111,3%
Lag Phase ([3]; minimal medium, 400 µM): 151,4%

O=C(/C=C/c1ccccc1)c1ccc(O)cc1O [Compound 4, 2′,4′-Dihydroxychalcone]
activity at 4 µM [1, 4]: 101%
activity at 4 µM [1, 5]: 113%
activity at 40 µM [1, 6]: 105%
activity at 40 µM [1, 7]: 115%
activity at 400 µM [1, 8]: 107%
activity at 400 µM [1, 9]: 91.6%
activity at 4 µM [1, 10]: 102%
activity at 4 µM [1, 11]: 98.9%
activity at 40 µM [1, 12]: 100%
activity at 40 µM [1, 13]: 95.5%
activity at 400 µM [1, 14]: 110%
activity at 400 µM [1, 15]: 65.2%
Lag Phase ([1]; complex medium, 4 µM): 97,4%
Lag Phase ([1]; complex medium, 40 µM): 96,2%
Lag Phase ([1]; complex medium, 400 µM): 116,6%
Lag Phase ([1]; minimal medium, 4 µM): 98,7%
Lag Phase ([1]; minimal medium, 40 µM): 100,0%
Lag Phase ([1]; minimal medium, 400 µM): 169,9%
activity at 4 µM [2, 16]: 101%
activity at 4 µM [2, 17]: 79.6%
activity at 40 µM [2, 18]: 104%
activity at 40 µM [2, 19]: 97.2%
activity at 400 µM ([2]; MG1655, complex medium, 400 µM, read-out: Final Backscatter): 100%
activity at 400 µM [2, 20]: 89.4%
activity at 4 µM [2, 21]: 103%
activity at 4 µM [2, 22]: 79%
activity at 40 µM [2, 23]: 99.3%
activity at 40 µM [2, 24]: 77.8%
activity at 400 µM [2, 25]: 102%
activity at 400 µM [2, 26]: 76.5%
Lag Phase ([2]; complex medium, 4 µM): 102,2%
Lag Phase ([2]; complex medium, 40 µM): 101,8%
Lag Phase ([2]; complex medium, 400 µM): 101,5%
Lag Phase ([2]; minimal medium, 4 µM): 100,7%
Lag Phase ([2]; minimal medium, 40 µM): 99,3%
Lag Phase ([2]; minimal medium, 400 µM): 101,1%
activity at 4 µM [3, 27]: 92.2%
activity at 4 µM [3, 28]: 128%
activity at 40 µM [3, 29]: 94.3%
activity at 40 µM [3, 30]: 97.4%
activity at 400 µM [3, 31]: 81.5%
activity at 400 µM [3, 32]: 92.7%
activity at 4 µM [3, 33]: 96.6%
activity at 4 µM [3, 34]: 91.5%
activity at 40 µM [3, 35]: 95.7%
activity at 40 µM [3, 36]: 108%
activity at 400 µM [3, 37]: 77.3%
activity at 400 µM [3, 38]: 75.2%
Influence on bacterial growth ([3]; Complex medium): fbs↓ lag↑
Influence on bacterial growth ([3]; Minimal medium): fbs↓, lag↑
Lag Phase ([3]; complex medium, 4 µM): 107,7%
Lag Phase ([3]; complex medium, 40 µM): 107,7%
Lag Phase ([3]; complex medium, 400 µM): 166,5%
Lag Phase ([3]; minimal medium, 4 µM): 97,7%
Lag Phase ([3]; minimal medium, 40 µM): 100,0%
Lag Phase ([3]; minimal medium, 400 µM): 129,1%
